Test results reported in paper PMC9488892 (Medicinal Chemistry Research, 2022).

Assays:
[1] = molecular target: melatonin type I (MT1) receptor (Homo sapiens, UniProt P48039); assay type: cell-based
[2] = molecular target: T1, melatonin type II (MT2) receptor (Homo sapiens, UniProt P49286); assay type: cell-based
T1 sequence (P49286 1-362): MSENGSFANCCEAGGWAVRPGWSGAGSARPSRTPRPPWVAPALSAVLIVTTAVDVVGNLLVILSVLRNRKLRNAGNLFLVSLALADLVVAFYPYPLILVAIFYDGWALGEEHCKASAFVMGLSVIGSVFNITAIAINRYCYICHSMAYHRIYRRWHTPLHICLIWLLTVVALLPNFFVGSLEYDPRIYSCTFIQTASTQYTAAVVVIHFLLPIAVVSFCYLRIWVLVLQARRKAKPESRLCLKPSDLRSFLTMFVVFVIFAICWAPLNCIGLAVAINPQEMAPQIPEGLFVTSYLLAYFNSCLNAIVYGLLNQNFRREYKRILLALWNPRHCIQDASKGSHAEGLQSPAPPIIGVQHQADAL

melatonin type I (MT1) receptor, sequence (P48039 whole entry): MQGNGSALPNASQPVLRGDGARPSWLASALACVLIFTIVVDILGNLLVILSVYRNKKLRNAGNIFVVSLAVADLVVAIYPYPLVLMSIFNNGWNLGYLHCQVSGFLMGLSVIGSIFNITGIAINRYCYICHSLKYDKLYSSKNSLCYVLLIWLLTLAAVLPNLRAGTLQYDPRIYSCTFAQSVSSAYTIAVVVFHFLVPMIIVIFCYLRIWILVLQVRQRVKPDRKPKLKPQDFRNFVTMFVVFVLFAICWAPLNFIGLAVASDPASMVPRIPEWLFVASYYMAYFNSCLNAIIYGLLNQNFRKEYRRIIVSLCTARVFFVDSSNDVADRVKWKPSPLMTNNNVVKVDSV

EC50 [1]: 200 µM
EC50 [2]: 240 µM
SMILES: Cc1cc2c(cc1O)[C@@H](C)[C@H]1Oc3cc(C)c(O)cc3[C@@]1(CN1CCN(C)CC1)O2 [compound 13, (5aS,10aR,11R)-3,8,11-trimethyl-5a-((4-methylpiperazin-1-yl)methyl)-5a,10a-dihydro-11H-benzofuro[3,2-b]chromene-2,7-diol]
